In patent US9353110B2, “Fused heterocyclic compound” (Sumitomo Chemical Company, Limited, priority 2011, dated 2016) one finds death rate data, which are given here for 30 molecules.

Holding throughout (type): in vivo
One assay relates to Blattalla germanica. The assay can be described thus: Test Example 9: filter paper with sucrose bait against Blattalla germanica. The following applies: 500 ppm test solution, 0.7 ml on filter paper, 2 male imagoes, after 6 days. The protocol:
Each test solution was prepared by diluting a formulation containing any of the present compounds 4-5, 19-20, 28-29, 40, 44, 48, 60, 71-74, 89, 523 and 528 as obtained in Formulation Example 5, with water so as to give 500 ppm of the concentration of the active ingredient.
A filter paper having a diameter of 5.5 cm was spread on the bottom of a polyethylene cup having a diameter of 5.5 cm and each test solution (0.7 ml) was added dropwise onto the filter paper. As a bait sucrose (30 mg) was uniformly placed on the filter paper. Into the polyethylene cup, 2 male imagoes of Blattalla germanica were released and the cup was sealed with a lid. After 6 days, the number of surviving Blattalla germanica was examined and the death rate of the pest was calculated.

The test system of assay [1] is Haemaphysalis longicornis. The assay can be described thus: Test Example 11: coated screw tube against nymphal ticks Haemaphysalis longicornis. As to conditions: 2 mg compound coated on inner wall of screw tube, 5 non-blood-sucking nymphal ticks, after 2 days. Here is the method: Each 2 mg of the present compounds 1, 5, 8, 15-16, 19, 23, 25-27, 30, 37, 40, 49, 61, 63, 99 and 516 was put into a screw tube (Maruemu No. 5; 27×55 mm). Acetone (0.2 ml) was added thereto and sealed with a cap. After dissolving the compound in acetone, the screw tube was rotated and inverted to uniformity coat the solution onto the whole inner wall of the tube. After removing the cap, the solution was air-dried for about 2 hours. Then, non-blood-sucking nymphal ticks, Haemaphysalis longicornis (5 ticks/group) were released into the tube, and the tube was sealed with the cap. After 2 days, the number of dead tick was counted, and a death rate was calculated according to the following equation: Death rate (%)=(Number of dead tick/Number of tested tick)×100

For the next assay, the system named is Musca domestica. The assay can be described thus: Test Example 8: filter paper with sucrose bait against Musca domestica. The following applies: 500 ppm test solution, 0.7 ml on filter paper, 10 female imagoes, after 24 hours. The protocol:
Each test solution was prepared by diluting a formulation containing any of the present compounds 1, 3-5, 8, 15-16, 19-20, 23, 27, 29, 37, 40, 44, 48, 60-61, 64, 72, 74, 518, 523 and 528 as obtained in Formulation Example 5, with water so as to give 500 ppm of the concentration of the active ingredient.
A filter paper having a diameter of 5.5 cm was spread on the bottom of a polyethylene cup having a diameter of 5.5 cm and each test solution (0.7 ml) was added dropwise onto the filter paper. As a bait sucrose (30 mg) was uniformly placed on the filter paper. Into the polyethylene cup, 10 female imagoes of Musca domestica were released and the cup was sealed with a lid. After 24 hours, the number of surviving Musca domestica was examined and the death rate of the pest was calculated.

`CCSc1cc(C(F)(F)F)cnc1-c1nc2cc(C(F)(F)F)cnc2n1C` [compound 4] came in with a death rate in the assay with Blattalla germanica of 100%.
In assay [1], `CCS(=O)(=O)c1cccnc1-c1nc2cc(SC(F)(F)F)ccc2n1C` [compound 63] yielded a death rate of 100%.
For `CCS(=O)(=O)c1cc(C(OC)(OC)OC)cnc1-c1nc2cc(C(F)(F)C(F)(F)F)cnc2n1C` [compound 528], the death rate with Musca domestica and in the assay on Blattalla germanica was 100% throughout.
Regarding `CCSc1cccnc1-c1nc2cc(SC(F)(F)F)ccc2n1C` [compound 61], the death rate (in the assay with Musca domestica; in assay [1]) was 100% in each case.
Take `CCS(=O)(=O)c1cc(C(F)(F)F)cnc1-c1nc2cc(S(=O)(=O)C(F)(F)F)cnc2n1C` [compound 25]: in assay [1], the death rate is 100%.
For the molecule `CCS(=O)(=O)c1cccnc1-c1nc2cc([S+]([O-])C(F)(F)F)cnc2n1C` (stereo not shown) [compound 20], the death rate in the assay with Musca domestica and with Blattalla germanica was 100% in each case.
As to `CCS(=O)(=O)c1cc(C(F)(F)F)cnc1-c1nc2cc(C(F)(F)C(F)(F)F)ccc2n1C` [compound 40], the death rate (with Musca domestica; in the assay on Blattalla germanica; in assay [1]) was 100% in each case.
Regarding `CCS(=O)(=O)c1cc(C(F)(F)F)cnc1-c1nc2cc(SC(F)(F)F)cnc2n1C` [compound 44], the death rate with Musca domestica and with Blattalla germanica was 100% each time.
With `CCS(=O)(=O)c1cc(C(F)(F)F)cnc1-c1nc2cc(C(F)(F)C(F)(F)F)cnc2n1C` [compound 19], the death rate (in the assay with Musca domestica; in the assay on Blattalla germanica; in assay [1]) was 100% throughout.
On to `CCS(=O)(=O)c1cc(C(F)(F)F)cnc1-c1nc2cc(C(F)(F)F)cnc2n1C` [compound 5], for which the death rate (in the assay with Musca domestica; in the assay with Blattalla germanica; in assay [1]) was 100% each time.
As for `CCS(=O)(=O)c1cc(C(F)(F)F)cnc1-c1nc2cc(C(F)(F)C(F)(F)F)c[n+]([O-])c2n1C` [compound 523], the death rate with Musca domestica and in the assay on Blattalla germanica was 100% throughout.
In assay [1], `CCSc1cccnc1-c1nc2cc(C(F)(F)F)cc(Sc3ccccc3)c2n1C` [compound 516] yielded a death rate of 100%.
`CCS(=O)(=O)c1cccnc1-c1nc2cc(C(F)(F)C(F)(F)F)ccc2n1C` [compound 27]: the death rate (with Musca domestica; in assay [1]) was 100% each time.
Take `CCS(=O)(=O)c1cccnc1-c1nc2cc(S(=O)(=O)C(F)(F)F)cnc2n1C` [compound 16]: the death rate (in the assay with Musca domestica; in assay [1]) was 100% each time.
Molecule `CCS(=O)(=O)c1cccnc1-c1nc2cc(S(=O)(=O)C(F)(F)F)ccc2n1C` [compound 64] yielded a death rate with Musca domestica of 100%.
Molecule `CCS(=O)(=O)c1cc(C(F)(F)F)cnc1-c1nc2cc(C(F)(F)F)c(Cl)nc2n1C` [compound 89] returned a death rate in the assay on Blattalla germanica of 100%.
In the case of `CCSc1cccnc1-c1nc2cc(C(F)(F)F)cnc2n1C` [compound 1], the death rate (with Musca domestica; in assay [1]) was 100% in each case.
Turning to `CCS(=O)(=O)c1cc(C(F)(F)F)cnc1-c1nc2cc(C(F)(F)F)c[n+]([O-])c2n1C` [compound 48], the death rate with Musca domestica and in the assay with Blattalla germanica was 100% throughout.
For `CCS(=O)(=O)c1cccnc1-c1nc2cc(C(F)(F)F)cc(S(=O)(=O)CC(F)(F)F)c2n1C` [compound 518], in the assay on Musca domestica, the death rate is recorded as 100%.
With `CCS(=O)(=O)c1cc(C(F)(F)F)cnc1-c1nc2cc([S+]([O-])C(F)(F)F)cnc2n1C` (stereo not shown) [compound 60], the death rate with Musca domestica and with Blattalla germanica was 100% throughout.
Turning to `CCS(=O)(=O)c1cccnc1-c1nc2cc(C(F)(F)C(F)(F)F)cnc2n1C` [compound 8], the death rate (in the assay on Musca domestica; in assay [1]) was 100% throughout.
As for `CCS(=O)(=O)c1cccnc1-c1nc2cc(C(F)(F)F)cnc2n1C` [compound 3], the death rate in the assay with Musca domestica is on record as 100%.
In turn, `CCS(=O)(=O)c1cc(C(F)(F)F)cnc1-c1nc2cc(C(F)(F)F)c(N(C)C)nc2n1C` [compound 99] gave a death rate in assay [1] of 100%.
`CCS(=O)(=O)c1cc(C(F)(F)C(F)(F)F)cnc1-c1nc2cc(C(F)(F)C(F)(F)F)cnc2n1C` [compound 74]: the death rate in the assay with Musca domestica and in the assay on Blattalla germanica was 100% throughout.
On to `CCSc1cccnc1-c1nc2cc(C(F)(F)F)ccc2n1C` [compound 30], for which, in assay [1], the death rate is 100%.
The molecule `CCSc1cccnc1-c1nc2cc(OC(F)(F)F)ccc2n1C` [compound 49] showed a death rate in assay [1] of 100%.
In the assay with Blattalla germanica, `CCSc1cc(C(F)(F)F)cnc1-c1nc2cc(SC(F)(F)F)cnc2n1C` [compound 28] came in with a death rate of 100%.
As to `CCS(=O)(=O)c1cccnc1-c1nc2cc(SC(F)(F)F)cnc2n1C` [compound 15], the death rate (in the assay with Musca domestica; in assay [1]) was 100% in each case.
In turn, `CCSc1cc(C(F)(F)C(F)(F)F)cnc1-c1nc2cc(C(F)(F)F)cnc2n1C` [compound 71] displayed a death rate in the assay with Blattalla germanica of 100%.
In turn, `CCS(=O)(=O)c1cc(C(F)(F)C(F)(F)F)cnc1-c1nc2cc(C(F)(F)F)cnc2n1C` [compound 72] came in with a death rate with Musca domestica of 100%.
